Experimental data as given in article PMC6599250, “Functional diversity of inhibitors tackling the differentiation blockage of MLL-rearranged leukemia” (Journal of Hematology & Oncology, 2019).
Read-outs that look alike come from different tables or passages of the source.

How the values were obtained:
Format in all cases: cell-based
EOL-1 (MLL-TD) cells = assay: Cell proliferation (alamarBlue) EOL-1; conditions: Homo sapiens
Procedure: (§1) Cells were seeded in the optimal growth medium at 4000–5000 cells/well in a 96 MTP and cultured 18–24 h before inhibitor treatment.

SEM (MLL-AF4) cells = assay: Cell proliferation (alamarBlue) SEM
Procedure: as §1

OCI-AML-3 (MLL-WT) cells = assay: Cell proliferation (alamarBlue) OCI-AML-3; conditions: Homo sapiens
Procedure: as §1

MV4-11 (MLL-AF4) cells = assay: Cell proliferation (alamarBlue) MV4-11; conditions: Homo sapiens
Procedure: as §1

[1] = tested on: selected MLL-fused models; assay: Cell proliferation, AML/ALL panel; conditions: specifically in selected MLL-fused models (Fig. 2a); read-out: proliferation IC50 (significant effects)
Procedure: as §1

[2] = tested on: MLL-fused cell lines (MV4-11, MOLM-13); assay: CD11b protein expression by flow cytometry, MLL-fused lines; conditions: 4 and 7 days of treatment
Procedure: (§2) Four thousand cells per well were seeded 24 h before they were treated with the indicated inhibitor in a 96 MTP. After 4 or 7 days of treatment, cells were washed with PBS and stained with CD11b - APC (BioLegend, San Diego, California, USA) and DAPI (Thermo Fisher Scientific, Waltham, Massachusetts, USA) or AnnexinV – FITC (BioLegend, San Diego, California, USA) and PI solution (Sigma-Aldrich St. Louis, Missouri, USA) using the FACS Canto II (BD Biosciences, Heidelberg, Germany) and data was analyzed with FACSDiva software.

RS4;11 (MLL-AF4) cells = assay: Cell proliferation (alamarBlue) RS4;11; conditions: Homo sapiens, RS4-11, read-out: IC50 proliferation, RS4;11 (MLL-AF4)
Procedure: as §1

MOLM-13 (MLL-AF9) cells = assay: Cell proliferation (alamarBlue) MOLM-13; conditions: Homo sapiens
Procedure: as §1

HL-60 cells = assay: CD11b protein expression by flow cytometry, HL-60; conditions: non-fused HL-60 cell line, 4 and 7 days of treatment
Procedure: as §2

NOMO-1 (MLL-AF9) cells = assay: Cell proliferation (alamarBlue) NOMO-1; conditions: Homo sapiens
Procedure: as §1

ML-2 (MLL-AF6) cells = assay: Cell proliferation (alamarBlue) ML-2
Procedure: as §1

OCI-AML-5 (MLL-WT) cells = assay: Cell proliferation (alamarBlue) OCI-AML-5; conditions: Homo sapiens
Procedure: as §1

MOLM-14 (MLL-AF9) cells = assay: Cell proliferation (alamarBlue) MOLM-14; conditions: Homo sapiens
Procedure: as §1

KOPN-8 (MLL-ENL) cells = assay: Cell proliferation (alamarBlue) KOPN-8; conditions: Homo sapiens
Procedure: as §1

[3] = tested on: MV4-11, MOLM-13 and HL-60 cells; assay: Cell cycle analysis (PI, flow cytometry); conditions: 4 days of treatment (Figure S2)
Procedure: Cells were washed with PBS and fixed overnight at − 20 °C with 70% ethanol. Fixed cells were stained with PI solution (Sigma-Aldrich St. Louis, MO, USA) solution containing RNase A (Qiagen, Hilden, Germany). Fluorescence was measured with FACS Canto II (BD Biosciences, Heidelberg, Germany) flow cytometer and data was analyzed with FACSDiva software.

Jurkat (MLL-WT) cells = assay: Cell proliferation (alamarBlue) Jurkat; conditions: Homo sapiens
Procedure: as §1

[4] = tested on: OCI-AML-2 (MLL-AF9) cells; assay: Cell proliferation (alamarBlue) OCI-AML-2; conditions: Homo sapiens
Procedure: as §1

HL-60 (MLL-WT) cells = assay: Cell proliferation (alamarBlue) HL-60; conditions: for IC50: Homo sapiens, read-out: IC50 proliferation
Procedure: as §1

IC50 (OCI-AML-3 (MLL-WT) cells; OCI-AML-3, read-out: IC50 proliferation, OCI-AML-3 (MLL-WT), D1): > 10 µM
IC50 (OCI-AML-3 (MLL-WT) cells; OCI-AML-3, read-out: IC50 proliferation, OCI-AML-3 (MLL-WT), D4): 1.37 µM
IC50 (OCI-AML-3 (MLL-WT) cells; OCI-AML-3, read-out: IC50 proliferation, OCI-AML-3 (MLL-WT), D7): 1.56 µM
IC50 (MV4-11 (MLL-AF4) cells; MV4-11, read-out: IC50 proliferation, MV4-11 (MLL-AF4), D1): > 10 µM
IC50 (MV4-11 (MLL-AF4) cells; MV4-11, read-out: IC50 proliferation, MV4-11 (MLL-AF4), D4): 0.09 µM
IC50 (MV4-11 (MLL-AF4) cells; MV4-11, read-out: IC50 proliferation, MV4-11 (MLL-AF4), D7): 0.03 µM
IC50 (RS4;11 (MLL-AF4) cells; D1): > 10 µM
IC50 (RS4;11 (MLL-AF4) cells; D4): > 10 µM
IC50 (RS4;11 (MLL-AF4) cells; D7): 5.99 µM
IC50 (MOLM-13 (MLL-AF9) cells; MOLM-13, read-out: IC50 proliferation, MOLM-13 (MLL-AF9), D1): > 10 µM
IC50 (MOLM-13 (MLL-AF9) cells; MOLM-13, read-out: IC50 proliferation, MOLM-13 (MLL-AF9), D4): 0.14 µM
IC50 (MOLM-13 (MLL-AF9) cells; MOLM-13, read-out: IC50 proliferation, MOLM-13 (MLL-AF9), D7): 0.28 µM
IC50 (OCI-AML-5 (MLL-WT) cells; OCI-AML-5, read-out: IC50 proliferation, OCI-AML-5 (MLL-WT), D1): > 10 µM
IC50 (OCI-AML-5 (MLL-WT) cells; OCI-AML-5, read-out: IC50 proliferation, OCI-AML-5 (MLL-WT), D4): > 10 µM
IC50 (OCI-AML-5 (MLL-WT) cells; OCI-AML-5, read-out: IC50 proliferation, OCI-AML-5 (MLL-WT), D7): 8.56 µM
IC50 (MOLM-14 (MLL-AF9) cells; MOLM-14, read-out: IC50 proliferation, MOLM-14 (MLL-AF9), D1): 6.89 µM
IC50 (MOLM-14 (MLL-AF9) cells; MOLM-14, read-out: IC50 proliferation, MOLM-14 (MLL-AF9), D4): 0.31 µM
IC50 (MOLM-14 (MLL-AF9) cells; MOLM-14, read-out: IC50 proliferation, MOLM-14 (MLL-AF9), D7): 0.23 µM
IC50 (Jurkat (MLL-WT) cells; read-out: IC50 proliferation, Jurkat (MLL-WT), D1): > 10 µM
IC50 (Jurkat (MLL-WT) cells; read-out: IC50 proliferation, Jurkat (MLL-WT), D4): 9 µM
IC50 (Jurkat (MLL-WT) cells; read-out: IC50 proliferation, Jurkat (MLL-WT), D7): 9.09 µM
IC50 ([4]; OCI-AML2, read-out: IC50 proliferation, OCI-AML-2 (MLL-AF9), D1): > 10 µM
IC50 ([4]; OCI-AML2, read-out: IC50 proliferation, OCI-AML-2 (MLL-AF9), D4): 8.26 µM
IC50 ([4]; OCI-AML2, read-out: IC50 proliferation, OCI-AML-2 (MLL-AF9), D7): 9.15 µM
IC50 (HL-60 (MLL-WT) cells; HL-60, 24 h): > 10 µM
IC50 (HL-60 (MLL-WT) cells; HL-60, 96 h): 9.04 µM
IC50 (HL-60 (MLL-WT) cells; HL-60, 168 h): > 10 µM
SMILES: Cc1c(CN2CCC3(CC2)CN(c2ncnc4sc(CC(F)(F)F)cc24)C3)ccc2c1cc(C#N)n2CC(N)=O [BAY-155]
IC50 (EOL-1 (MLL-TD) cells; EOL1, read-out: IC50 proliferation, EOL-1 (MLL-TD), D1): 6.83 µM
IC50 (EOL-1 (MLL-TD) cells; EOL1, read-out: IC50 proliferation, EOL-1 (MLL-TD), D4): 1.62 µM
IC50 (EOL-1 (MLL-TD) cells; EOL1, read-out: IC50 proliferation, EOL-1 (MLL-TD), D7): 1.14 µM
IC50 (SEM (MLL-AF4) cells; read-out: IC50 proliferation, SEM (MLL-AF4), D1): > 10 µM
IC50 (SEM (MLL-AF4) cells; read-out: IC50 proliferation, SEM (MLL-AF4), D4): 0.66 µM
IC50 (SEM (MLL-AF4) cells; read-out: IC50 proliferation, SEM (MLL-AF4), D7): 0.79 µM
IC50 [1]: < 1 µM
CD11b protein level [2]: increased CD11b protein level in a dose and time-dependent manner
CD11b level (HL-60 cells): did not increase CD11b level
IC50 (NOMO-1 (MLL-AF9) cells; NOMO-1, read-out: IC50 proliferation, NOMO-1 (MLL-AF9), D1): > 10 µM
IC50 (NOMO-1 (MLL-AF9) cells; NOMO-1, read-out: IC50 proliferation, NOMO-1 (MLL-AF9), D4): 0.15 µM
IC50 (NOMO-1 (MLL-AF9) cells; NOMO-1, read-out: IC50 proliferation, NOMO-1 (MLL-AF9), D7): 0.07 µM
IC50 (ML-2 (MLL-AF6) cells; read-out: IC50 proliferation, ML-2 (MLL-AF6), D1): > 10 µM
IC50 (ML-2 (MLL-AF6) cells; read-out: IC50 proliferation, ML-2 (MLL-AF6), D4): > 10 µM
IC50 (ML-2 (MLL-AF6) cells; read-out: IC50 proliferation, ML-2 (MLL-AF6), D7): > 10 µM
IC50 (KOPN-8 (MLL-ENL) cells; KOPN-8, read-out: IC50 proliferation, KOPN-8 (MLL-ENL), D1): > 10 µM
IC50 (KOPN-8 (MLL-ENL) cells; KOPN-8, read-out: IC50 proliferation, KOPN-8 (MLL-ENL), D4): 6.34 µM
IC50 (KOPN-8 (MLL-ENL) cells; KOPN-8, read-out: IC50 proliferation, KOPN-8 (MLL-ENL), D7): 1.89 µM
cell cycle effect [3]: decrease of cells in S and G2/M phase with increasing concentrations
anti-proliferation effect in non-fused HL-60 (HL-60 (MLL-WT) cells; HL-60, 4 days of treatment (Fig. 1a)): only affected with the 10 μM treatment
